According to publication PMC12615753, “Glutathione as a taste modulator: molecular mechanisms of interaction with umami and sweet taste receptors” (Food Chemistry: Molecular Sciences, 2025):

Molecular target: T1, hTAS1R1 S172A/rTAS1R3 (UniProt Q7RTX1+Q923K1, S172A)
T1 construct: UniProtKB number Q7RTX1–1); The cDNA coding region of rTAS1R3 was synthesized with optimized-codon usage for human expression; expressed in transfected cells; host or cells: HEK293T/17
T1 sequence (Q7RTX1 21-841 S172A): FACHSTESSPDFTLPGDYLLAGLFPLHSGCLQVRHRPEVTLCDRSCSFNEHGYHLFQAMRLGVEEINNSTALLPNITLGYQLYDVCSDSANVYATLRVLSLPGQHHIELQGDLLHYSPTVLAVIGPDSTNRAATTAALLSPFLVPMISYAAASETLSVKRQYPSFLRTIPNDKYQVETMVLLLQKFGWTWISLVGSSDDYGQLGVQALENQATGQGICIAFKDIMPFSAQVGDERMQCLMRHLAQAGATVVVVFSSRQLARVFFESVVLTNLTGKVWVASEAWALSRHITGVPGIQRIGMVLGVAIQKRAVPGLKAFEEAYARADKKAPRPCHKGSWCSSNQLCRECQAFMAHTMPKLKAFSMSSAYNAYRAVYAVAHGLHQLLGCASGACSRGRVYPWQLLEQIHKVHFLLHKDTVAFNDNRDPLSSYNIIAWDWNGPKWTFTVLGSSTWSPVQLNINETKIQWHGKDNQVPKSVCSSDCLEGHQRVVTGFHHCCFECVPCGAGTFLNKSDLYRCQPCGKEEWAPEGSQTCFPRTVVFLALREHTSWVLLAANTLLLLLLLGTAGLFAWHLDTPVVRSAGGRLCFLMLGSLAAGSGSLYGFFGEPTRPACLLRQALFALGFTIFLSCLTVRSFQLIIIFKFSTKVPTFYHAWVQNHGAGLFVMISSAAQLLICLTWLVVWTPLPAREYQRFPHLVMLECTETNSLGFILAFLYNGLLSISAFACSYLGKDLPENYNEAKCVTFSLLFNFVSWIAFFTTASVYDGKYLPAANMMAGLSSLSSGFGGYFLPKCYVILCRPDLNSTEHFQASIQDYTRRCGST
T1 sequence (Q923K1 21-858): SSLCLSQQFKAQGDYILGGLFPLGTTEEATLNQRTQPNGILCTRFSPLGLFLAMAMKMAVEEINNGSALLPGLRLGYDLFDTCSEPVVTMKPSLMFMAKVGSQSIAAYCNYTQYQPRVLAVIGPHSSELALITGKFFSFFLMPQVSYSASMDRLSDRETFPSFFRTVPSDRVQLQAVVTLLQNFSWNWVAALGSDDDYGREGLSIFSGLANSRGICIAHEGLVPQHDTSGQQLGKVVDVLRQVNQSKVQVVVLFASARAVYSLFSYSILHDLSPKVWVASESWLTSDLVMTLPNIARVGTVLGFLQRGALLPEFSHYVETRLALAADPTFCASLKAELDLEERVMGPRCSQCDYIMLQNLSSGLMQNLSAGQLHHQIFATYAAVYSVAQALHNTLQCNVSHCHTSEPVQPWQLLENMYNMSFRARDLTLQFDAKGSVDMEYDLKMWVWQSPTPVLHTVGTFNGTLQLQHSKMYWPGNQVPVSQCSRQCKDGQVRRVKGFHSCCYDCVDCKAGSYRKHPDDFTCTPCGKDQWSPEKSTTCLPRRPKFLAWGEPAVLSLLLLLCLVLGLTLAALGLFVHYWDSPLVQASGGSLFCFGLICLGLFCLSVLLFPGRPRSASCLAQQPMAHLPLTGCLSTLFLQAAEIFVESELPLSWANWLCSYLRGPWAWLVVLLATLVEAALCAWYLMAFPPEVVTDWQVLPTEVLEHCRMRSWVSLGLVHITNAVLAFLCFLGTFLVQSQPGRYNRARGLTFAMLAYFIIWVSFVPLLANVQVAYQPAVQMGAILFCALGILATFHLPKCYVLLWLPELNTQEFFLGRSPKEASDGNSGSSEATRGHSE
Assay: Calcium assay, hTAS1R1 mutant co-expressed with rTAS1R3
Format: cell-based, human, rat
Details: for response to the agonist alone, vs WT: S172A
Description: Chimeric Gα proteins, such as Gα16Gust44, Gα16Gi3 or Gα15i2, are widely used in the functional expression of TAS1R receptors ([Backes et al., 2015]; [Suess et al., 2015]; [Toda et al., 2021], [Toda et al., 2013], [Toda et al., 2018]; [Zhang et al., 2008]). Chimeric Gα15i2 (([Toda et al., 2013]), Supplementary data) was generated by replacing the last five residues of the C-terminal tail of rat Gα15i2 (EINLL) (UniProt number G3V6N8; https://www.uniprot.org/uniprot/) with the counterpart sequence from human GNAI2 (DCGLF) (UniProt number P04899-1) and cloning into the pcDNA3.1/Hygro vector (Invitrogen, Thermo Fisher Scientific, Illkirch, France) between the HindIII and NotI restriction sites, resulting in the plasmid pcDNA3.1-Gα15i2. Chimeric Gα16Gust44 construct have already been reported ([Raliou et al., 2011]). Briefly, Gα16Gust44 was generated by replacing the C-terminal of Gα16 with the C-terminal 44 residues of gustducin. As previously described, hTAS1R1 was amplified from human fungiform papillae cDNA and cloned and inserted into pcDNA3 (Invitrogen), generating pcDNA3-TAS1R1-WT (wild-type) ([Raliou et al., 2011]). […] The cDNA coding region of rTAS1R3 was synthesized with optimized-codon usage for human expression (Genewiz) and was cloned and inserted into the mammalian pcDNA4/myc-HisA (Invitrogen) expression vector between the EcoRI and NotI restriction sites, resulting in the plasmid pcDNA4-rTAS1R3. […] The sequence integrity of all the plasmid constructs was verified via automated DNA sequencing (Genewiz).
The hTAS1R1 mutants were co-expressed with the rTAS1R3 subunit in HEK293 cells. […] As a control, the functionality of the mutated receptors was checked after stimulation with S807 (Fig. S8), which interacts with TAS1R1-TMD ([Zhang et al., 2008]).

Row | Compound | EC50 | response to the agonist alone, vs WT
1 | N[C@@H](CCC(=O)N[C@@H](CS)C(=O)NCC(=O)O)C(=O)O [GSH, γ-L-glutamyl-L-cysteinyl-glycine] | > 30 mM | fully abolished
2 | N[C@@H](CCC(=O)O)C(=O)O [L-Glu, L-glutamic acid, reference compound] | – | completely suppressed
3 | CCCC(CCC)NC(=O)c1ccc2c(c1)OCO2 [S807, N-(heptan-4-yl)benzo[d][1,3]dioxole-5-carboxamide, reference compound] | – | strongly affected
